The subject of assay [1] is CD34+ population of cells isolated from cord blood. Put plainly: HD-DoE 8-factor experiment optimized for maximum expression of GATA1 (stage 1). The conditions noted are these: for factor contribution: 8-factor model optimized for maximum GATA1 expression, 3-day treatment. The class given is cell-based, human. The protocol:
The effector combinations were prepared in a basal media and were subsequently added to the cells, which were then allowed to differentiate. […] Solutions within the tested space could then be explored to address desirability.

The subject of assay [2] is MEP progenitor from CD34+ HSCs. Put plainly: Factor criticality analysis (dynamic profile), stage 1 recipe. The class given is cell-based, human. Also noted: unit not given here. As to the method: (§1) To assess the impact of the elimination of each validated factor identified for the stage 1 and 2 recipes as described in Example 1, dynamic profile analysis was used and compared the expression level of genes of interest in absence of each finalized factor while others are present.
In the stage 1 recipe, each of the five finalized factors was removed while the other four factors remained present and the expression levels of GATA2, GATA1, CD36 and TFRC were assessed compared to the presence of all five factors.

The subject of assay [3] is erythroid progenitors from GATA1+ MEP cells. As to the kind of experiment: Factor criticality analysis (dynamic profile), stage 2 recipe. The class given is cell-based, human. The arrangement: unit not given here. The protocol:
as §1
In the stage 2 recipe, each of the five finalized factors was removed while the other four factors remained present and the expression levels of GATA1, HBA1, GYPA (CD235) and TFRC were assessed compared to the presence of all five factors. When EPO was removed, the values of GATA1 decreased from 1386 to 736, the values of HBA1 changed from 700 to 285, the values of GYPA decreased from 345 to 61 and the values of TFRC dropped from 2943 to 898. All changes represent a significant loss of expression of a desired gene.

Assay [4] deals with GATA1 bipotential progenitor (MEP progenitor) from human cord blood CD34+ cells. As to the kind of experiment: HD-DoE 12-factor experiment optimized for maximum expression of HBA1 (stage 2). The format is cell-based. The conditions noted are these: 12-factor model optimized for maximum HBA1 expression; 3 days after stage 1. As to the method: To engineer the stage 2 media, first CD34+ cells from human cord blood cells were cultured for 5 days in stage 1 media (Table 1), which converts hematopoietic stem cells to a GATA1 bipotential progenitor (MEP progenitor). This progenitor has the potential to differentiate to erythroid and megakaryocyte lineages. To further guide the differentiation of GATA1 bipotential progenitor, an additional HD-DoE experiment was performed. […] The basis of this was a 12-factor HD-DoE experiment with focus on differentiation of cells toward the erythroid lineage for an additional 3 days after termination of stage 1 treatment.
To test the effectors, 96 different combinations of effectors generated using Design-of-Experiments compression through D-optimality were robotically prepared. The effector combinations were prepared in a basal media and were subsequently added to the cells, which were then allowed to differentiate. Three days later RNA extraction was performed, and gene expression was obtained using quantitative PCR analysis. The data were normalized and modeled using partial least squares regression analysis to the effector design, resulting in the generation of gene-specific models, which after model tuning for maximal Q2 predictive power, provided explanation of the effectors ability to control the expression of individual genes, combinatorically, and individually. Solutions within the tested space could then be explored to address desirability.
This model was derived from initial testing of twelve factors including: HB-EGF, Optiferrin, SR1, knockout serum, ibuprofen, GM-CSF, holo-transferrin, EPO, eltrombopag, Neuregulin 1, THI0019 and AICAR.

Assay [5] concerns CD34 cells. As to the kind of experiment: HD-DoE 6-factor experiment optimized for maximum expression of GATA1. The format is cell-based, human. The protocol: To test whether EPO or other commonly used cytokines are required for GATA1 induction, we conducted experiments with 6 factors in a range of concentrations. On this experiment CD34 cells were thawed and kept overnight in media containing SCF 10 ng/mL. On the next day, 48 different combinations of effectors were added to the cells, and SCF 5 ng/mL was kept in all the wells.

Assay [6] deals with HBA expression. As to the kind of experiment: Refinement of stage 2 recipe: HBA expression modelling and cell number. The format is cell-based, human. The conditions noted are these: higher concentration: holo-transferrin 600 ug/mL, EPO 4 U/mL; or supplement added. The protocol: In order to refine the stage 2 recipe, more modelling experiments were conducted using the same factors as the stage 2 recipe but testing different concentrations of critical factors such as EPO and holo-transferrin. Additionally, because lipid inputs are critical for RBC differentiation, a commercial cholesterol supplement (Sigma) was tested.

[7] abbreviates: named factor removed, other four present.

On to `NC1(c2ccc(-c3nc4ccn5c(=O)[nH]nc5c4cc3-c3ccccc3)cc2)CCC1` [MK2206], for which, in assay [1], the factor contribution stood at 17. Besides, the GATA1 expression in assay [2] (all five factors present) came out at 510; in assay [2] (setting [7]), 400.
As for `C=C1C(=O)O[C@@H]2C[C@@]3(C)CCC[C@H](C)C3=C[C@H]12` [Alantolactone], the factor contribution in assay [1] is given as 8. In addition, in assay [1] (8-factor model, GATA1), the “impact on GATA1 expression” value is recorded as “supportive of GATA1 induction”. In addition, the GATA1 expression in assay [2] (all five factors present) is 510; in assay [2] (setting [7]), 460.
Consider `CC(C)n1cnc2c(NCCc3ccc(O)cc3)nc(-c3csc4ccccc34)nc21` [SR1], for which the HBA1 expression in assay [3] (all five factors present) came to 700; in assay [3] (setting [7]), 597. In addition, the factor contribution in assay [1] is 6; in assay [4] it was 7. The figures for the GATA1 expression in assay [2] (all five factors present) and in assay [2] (setting [7]) were 510 and 410, respectively. Besides, the TFRC expression in assay [2] (all five factors present) is 970; in assay [2] (setting [7]) it was 570.
Consider `NC(=O)c1ncn([C@@H]2O[C@H](CO)[C@@H](O)[C@H]2O)c1N` [AICAR, reference compound], for which, in assay [3] (all five factors present), the GYPA expression is given as 337 and the HBA1 expression is reported as 689. In assay [3] (setting [7]), this molecule had a GYPA expression of 256 and an HBA1 expression of 569. The factor contribution in assay [4] is 9.
In the case of EPO: EPOR agonist, erythropoietin, in assay [3] (all five factors present), the GATA1 expression was 1386, the GYPA expression is 345, the HBA1 expression is 700 and the TFRC expression came to 2943. In assay [3] (setting [7]), the GATA1 expression came to 736, the GYPA expression came to 61, the HBA1 expression was found to be 285 and the TFRC expression worked out at 898. In addition, the “requirement for GATA1 induction” value in assay [5] (6-factor model) is “not required for GATA1 induction”. Also, in assay [4], the factor contribution is on record as 31. Besides, the HBA expression result in assay [6] is on record as “higher HBA expression”.
With holotransferrin: Iron source, in assay [3] (all five factors present), the GATA1 expression was found to be 1370, the GYPA expression was found to be 330, the HBA1 expression is 688 and the TFRC expression stood at 2883. In assay [3] (setting [7]), this molecule returned a GATA1 expression of 967, a GYPA expression of 170, an HBA1 expression of 500 and a TFRC expression of 1703. In assay [6], the HBA expression entry is “higher HBA expression”.

B1: Activin A: a member of the TGFβ family (protein, UniProt P08476 311-426, looked up)
Inhibin beta A chain: GLECDGKVNICCKKQFFVSFKDIGWNDWIIAPSGYHANYCEGECPSHIAGTSGSSLSFHSTVINHYRMRGHSPFANLKSCCVPTKLRPMSMLYYDDGQNIIKKDIQNMIVEECGCS
For B1, the factor contribution in assay [5] (6-factor model optimized for maximum GATA1 expression, SCF 5 ng/mL in all wells) is listed as 33.

For the origin of these results see patent US20230174938A1, “METHODS AND COMPOSITIONS FOR GENERATING HUMAN ERYTHROID PROGENITOR CELLS” (Trailhead Biosystems Inc., priority 2021, published 2023).
